Data on one compound can be found in patent publication US7354948B2, “Methods for treatment of chronic uveitis using cyclopropyl-n-{2-[(1S)-1-(3-ethoxy-4-methoxyphenyl)-2-(methylsulfonyl)ethyl]-3-oxoisoindoline-4-yl}carboxamide” (Celgene Corporation, priority 2002, dated 2008).

For data set [1], the system named is TNF-α production following LPS-stimulation of human PBMC and human whole blood. Briefly: Modulation of cytokine production, in vitro studies. Format: cell-based. Conditions: compared with thalidomide. An excerpt: In a specific embodiment, the pharmacological properties of 3-(3,4-dimethoxy-phenyl)-3-(1-oxo-1,3-dihydro-isoindol-2-yl)-propionamide are characterized in in vitro studies. Studies examine the effects of the compound on the production of various cytokines. Inhibition of TNF-α production following LPS-stimulation of human PBMC and human whole blood by the compound is investigated in vitro. […] The pharmacological effects of 3-(3,4-dimethoxy-phenyl)-3-(1-oxo-1,3-dihydro-isoindol-2-yl)-propionamide may derive from its action as an inhibitor of the generation of inflammatory cytokines.

A further data set deals with anesthetized dogs. Kind of data set: Toxicology study: cardiovascular and respiratory function in anesthetized dogs. Format: in vivo, Beagle dogs. The protocol:
The effects of 3-(3,4-dimethoxy-phenyl)-3-(1-oxo-1,3-dihydro-isoindol-2-yl)-propionamide on cardiovascular and respiratory function are investigated in anesthetized dogs. Two groups of Beagle dogs (2/sex/group) are used. One group receives three doses of vehicle only and the other receives three ascending doses of the compound (200, 400, and 800 mg/kg). In all cases, doses of the compound or vehicle are successively administered via infusion through the jugular vein separated by intervals of at least 30 minutes.

`COc1ccc(C(CC(N)=O)N2Cc3ccccc3C2=O)cc1OC` (stereo not shown) [3-(3,4-dimethoxy-phenyl)-3-(1-oxo-1,3-dihydro-isoindol-2-yl)-propionamide]: the “pharmacological activity profile, potency relative to thalidomide” value in data set [1] is given as “five to fifty times more potent than thalidomide”. In addition, the “cardiovascular and respiratory changes” value with anesthetized dogs (all doses (200, 400, and 800 mg/kg), infusion through the jugular vein, compared to vehicle control group) is “minimal”. In addition, the arterial blood pressure result with anesthetized dogs (following the low dose, only statistically significant difference between vehicle and treatment groups) was “small increase”. The “arterial blood pressure effect” value in the data set on anesthetized dogs (higher doses) is recorded as “not seen”.
